Test system: Ba/F3 expressing EGFR Del19/T790M/C797S mutations
Assay: Inhibitory activity on proliferation of Ba/F3 cell overexpressing EGFR C797S (Cell Titer-Glo)
Type: cell-based
Details: Mus musculus, BaF3; 72 hours treatment, cell growth rate vs control; read-out: Ba/F3 (EGFR DTC) GI50
Experimental: <Experimental Example 2> Evaluation of Inhibitory Activity on Proliferation of Ba/F3 Cell Overexpressing EGFR C797S
The following experiments were performed to evaluate the inhibitory activity of the compounds according to the present invention on the proliferation of Ba/F3 expressing EGFR Del19/T790M/C797S mutations.
Ba/F3 cells were cultured in RPMI-1640 medium supplemented with 10% fetal bovine serum (FBS), and 3000 cells were seeded into each well of a white clear bottom 96 well plate (Corning) 24 hours prior to compound treatment. The compounds were diluted in dimethyl sulfoxide (3-fold dilution, total of 12 concentrations) and injected at 1 μl each so that the final concentration was […] to 5 μM. After 72 hours post treatment with compounds, living cells were reacted in a 37° C., CO2 incubator for […], followed by 10 minutes at room temperature using Cell Titer-Glo luminescent cell-viability reagent (Promega), and the luminescence intensity thereof was measured using a reader (SynergyNeo2, Biotek). The result values were calculated as a cell growth rate (%) compared to the control group. GI50 values were calculated using the GraphPad Prism version 8.4.3 (GraphPad software Inc., San Diego) program.

Row | Compound | GI50 [nM]
1 | C[C@H]1CCOc2c(cnn2C)-c2nccc(n2)Nc2cc(c(C(=O)NCCCC(F)(F)F)cn2)N1 [Example 88, (S)-1^1,6-dimethyl-N-(4,4,4-trifluorobutyl)-1^1H-9-oxa-3,5-diaza-2(2,4)-pyrimidina-4(2,4)-pyridina-1(4,5)-pyrazolacyclo-nonaphane-4^5-carboxamide] | < 500
2 | C[C@H]1CCOc2c(cnn2C)-c2nccc(n2)Nc2cc(c(C(=O)NCCC(F)(F)F)cn2)N1 [Example 89, (S)-1^1,6-dimethyl-N-(3,3,3-trifluoropropyl)-1^1H-9-oxa-3,5-diaza-2(2,4)-pyrimidina-4(2,4)-pyridina-1(4,5)-pyrazolacyclo-nonaphane-4^5-carboxamide] | < 500
3 | C[C@H]1CCOc2c(cnn2C)-c2nccc(n2)Nc2cc(c(C(=O)NCC(F)(F)C(F)(F)F)cn2)N1 [Example 103, (S)-1^1,6-dimethyl-N-(2,2,3,3,3-pentafluoropropyl)-1^1H-9-oxa-3,5-diaza-2(2,4)-pyrimidina-4(2,4)-pyridina-1(4.,5)-pyrazolacyclo-nonaphane-4^5-carboxamide] | < 500
4 | C[C@H]1CCOc2c(cnn2C)-c2nccc(n2)Nc2cc(c(C(=O)Nc3cc(N4CCN(C)CC4)cc(N(C)S(C)(=O)=O)c3)cn2)N1 [Example 114, (S)-1^1,6-dimethyl-N-(3-(N-methyl-methylsulfonami-do)-5-(4-methylpiperazin-1-yl)phenyl)-1^1H-9-oxa-3,5-diaza-2(2,4)-pyrimidina-4(2,4)-pyridina-1(4,5)-pyrazolacyclo-nonaphane-4^5-carboxamide] | < 500
5 | CC(C)S(=O)(=O)CC1CN(C(=O)c2cnc3cc2N[C@@H](C)CCOc2c(cnn2C)-c2nccc(n2)N3)C1 [Example 121, (S)-(1^1,6-methyl-1^1H-9-oxa-3,5-diaza-2(2,4)-pyrimidina-4(2,4)-pyridina-1(4,5)-pyrazolacyclo-nonaphane-4^5-yl)(3-((isopropylsulfonyl)methyl)azetidin-1-yl)methanone] | < 500
6 | C[C@H]1CCOc2c(cnn2C)-c2cc(ccn2)Nc2cc(c(C(=O)NCCC(F)(F)F)cn2)N1 [Example 123, (S)-1^1,6-dimethyl-N-(3,3,3-trifluoropropyl)-1^1H-9-oxa-3,5-diaza-2,4(2,4)-dipyridina-1(4,5)-pyrazolacyclo-nonaphane-4^5-carboxamide] | < 500
7 | Cc1cc2cc(n1)-c1cnn(C)c1OCC[C@H](C)Nc1cc(ncc1C(=O)NCCC(F)(F)F)N2 [Example 124, (S)-1^1,2^6,6-trimethyl-N-(3,3,3-trifluoropropyl)-1^1H-9-oxa-3,5-diaza-2,4(2,4)-dipyridina-1(4,5)-pyrazolacyclo-nonaphane-4^5-carboxamide] | 500 to 5000
8 | C[C@H]1CCOc2c(cnn2C)-c2nccc(n2)Nc2cc(c(C(=O)Nc3cccc(CS(C)(=O)=O)c3)cn2)N1 [Example 125, (S)-1^1,6-dimethyl-N-(3-((methyl-sulfonyl)meth-yl)phenyl)-1^1H-9-oxa-3,5-diaza-2(2,4)-pyrimidina-4(2,4)-pyridina-1(4,5)-pyrazolacyclo-nonaphane-4^5-carboxamide] | 500 to 5000
9 | CC(C)Nc1cc(Nc2ccnc(-c3cnn(S(=O)(=O)C4CC4)c3)n2)ncc1C(=O)N1CC(CS(=O)(=O)C(C)C)C1 [Example 130, (6-((2-(1-(cyclopropylsulfonyl)-1H-pyrazol-4-yl)pyrimidin-4-yl)amino)-4-(isopropylamino)pyri-din-3-yl)(3-((isopropylsulfonyl)methyl)azetidin-1-yl)methanone] | < 500
10 | CC(C)Nc1cc(Nc2ccnc(-c3ccc(O)c(C=O)c3)n2)ncc1C(=O)N1C[C@H](CS(C)(=O)=O)[C@H]1C [Example 133, 2-hydroxy-5-(4-((4-(isopropylamino)-5-((2R,3S)-2-methyl-3-((methyl-sulfonyl)meth-yl)azetidine-1-carbonyl)pyridin-2-yl)amino)pyrimidin-2-yl)benzaldehyde] | 500 to 5000

Results, then the molecule that gave them:

Row | GI50 [nM] | Compound
11 | 500 to 5000 | CO[C@H]1CCN(c2nccc(Nc3cc(NC(C)C)c(C(=O)N(C)CCN(C)C)cn3)n2)C[C@H]1F (relative stereo) [Example 29, N-(2-(dimethylamino)ethyl)-6-((2-(cis-3-fluoro-4-methoxypiperidin-1-yl)pyrimidin-4-yl)amino)-4-(isopropylamino)-N-methylnicotinamide]
12 | 500 to 5000 | COCCN(C)C(=O)c1cnc(Nc2ccnc(N3CC[C@H](OC)[C@H](F)C3)n2)cc1NC(C)C (relative stereo) [Example 30, 6-((2-(cis-3-fluoro-4-methoxypiperidin-1-yl)pyrimidin-4-yl)amino)-4-(isopropylamino)-N-(2-methoxyethyl)-N-methylnicotinamide]
13 | 500 to 5000 | CO[C@H]1CCN(c2nccc(Nc3cc(NC(C)C)c(C(=O)Nc4cc(N5CCN(C)CC5)cc(C(F)(F)F)c4)cn3)n2)C[C@H]1F [Example 24, 6-((2-(cis-3-fluoro-4-methoxypiperidin-1-yl)pyrimidin-4-yl)amino)-4-(isopropylamino)-N-(3-(4-methylpiperazin-1-yl)-5-(trifluoromethyl)phe-nyl)nicotinamide]
14 | 500 to 5000 | COCCN(C)C(=O)c1cnc(Nc2ccnc(-c3cnn(S(=O)(=O)C4CC4)c3)n2)cc1NC(C)C [Example 27, 6-((2-(1-(cyclopropylsulfonyl)-1H-pyrazol-4-yl)pyrimidin-4-yl)amino)-4-(isopropylamino)-N-(2-methoxyethyl)-N-methylnicotinamide]
15 | 500 to 5000 | CO[C@H]1CCN(c2nccc(Nc3cc(NC(C)C)c(C(=O)Nc4cnn(S(=O)(=O)C5CC5)c4)cn3)n2)C[C@H]1F [Example 33, N-(1-(cyclopropylsulfonyl)-1H-pyrazol-4-yl)-6-((2-(cis-3-fluoro-4-methoxypiperidin-1-yl)pyrimidin-4-yl)amino)-4-(isopropylamino)nico-tinamide]
16 | 500 to 5000 | CC(C)Nc1cc(Nc2ccnc(-c3cnn(C(=O)C4CC4)c3)n2)ncc1C(=O)NCC#N [Example 87, N-(cyanomethyl)-6-((2-(1-(cyclo-propanecarbonyl)-1H-pyrazol-4-yl)pyrimidin-4-yl)amino)-4-(isopropylamino)nico-tinamide]
17 | 500 to 5000 | CO[C@H]1CCN(c2nccc(Nc3cc(NC(C)C)c(C(=O)NCC4CCCC4)cn3)n2)C[C@H]1F [Example 91, N-(cyclopentylmethyl)-6-((2-(cis-3-fluoro-4-methoxypiperidin-1-yl)pyrimidin-4-yl)amino)-4-(isopropylamino)nico-tinamide]
18 | 500 to 5000 | CC(C)Nc1nc(Nc2ccnc(-c3cnn(S(=O)(=O)C4CC4)c3)c2)ncc1C(=O)NCCCC(F)(F)F [Example 92, 2-((2-(1-(cyclopropylsulfonyl)-1H-pyrazol-4-yl)pyridin-4-yl)amino)-4-(isopropylamino)-N-(4,4,4-trifluorobutyl)pyrimi-din-5-carboxamide]
19 | 500 to 5000 | CO[C@H]1CCN(c2cc(Nc3ncc(C(=O)NCCCC(F)(F)F)c(NC(C)C)n3)ccn2)C[C@H]1F [Example 93, 2-((2-((3R,4S)-3-fluoro-4-methoxypiperidin-1-yl)pyridin-4-yl)amino)-4-(isopropylamino)-N-(4,4,4-trifluorobutyl)pyrimi-dine-5-carboxamide]
20 | 500 to 5000 | CO[C@H]1CCN(c2nccc(Nc3cc(NC(C)C)c(C(=O)NCCS(C)(=O)=O)cn3)n2)C[C@H]1F [Example 94, 6-((2-((3R,4S)-3-fluoro-4-methoxypiperidin-1-yl)pyrimidin-4-yl)amino)-4-(isopropylamino)-N-(2-(methylsulfonyl)ethyl) nicotinamide]
21 | 500 to 5000 | CO[C@H]1CCN(c2cc(Nc3ncc(C(=O)NCCS(C)(=O)=O)c(NC(C)C)n3)ccn2)C[C@H]1F [Example 95, 2-((2-((3R,4S)-3-fluoro-4-methoxypiperidin-1-yl)pyridin-4-yl)amino)-4-(isopropylamino)-N-(2-(methylsulfonyl)ethyl) pyrimidin-5-carboxamide]
22 | 500 to 5000 | CO[C@@H]1CCN(c2nccc(Nc3cc(NC(C)C)c(C(=O)N4CC(CS(=O)(=O)C(C)C)C4)cn3)n2)C[C@@H]1F [Example 131, (6-((2-(cis-3-fluoro-4-methoxypiperidin-1-yl)pyrimidin-4-yl)amino)-4-(isopropylamino)pyri-din-3-yl)(3-((isopropylsulfonyl)methyl)azetidin-1-yl)methanone]
23 | < 500 | CC(C)Nc1cc(Nc2ccnc(-c3cnn(S(=O)(=O)C4CC4)c3)n2)ncc1C(=O)NC[C@@H](F)C(C)(C)O [Example 132, (R)-6-((2-(1-(cyclopropylsulfonyl)-1H-pyrazol-4-yl)pyrimidin-4-yl)amino)-N-(2-fluoro-3-hydroxy-3-methylbutyl)-4-(isopropylamino)nico-tinamide]
24 | 500 to 5000 | CC(=O)c1cc(-c2nccc(Nc3cc(NC(C)C)c(C(=O)N4C[C@H](CS(C)(=O)=O)[C@H]4C)cn3)n2)ccc1O [Example 134, 1-(2-hydroxy-5-(4-((4-(isopropylamino)-5-((2R,3S)-2-methyl-3-((methylsulfonyl)meth-yl)azetidine-1-carbonyl)pyridin-2-yl)amino)pyrimidin-2-yl)phenyl)ethan-1-one]

Reference: patent publication US20250345329A1, “HETEROARYL DERIVATIVE COMPOUND AND USES THEREOF” (VORONOI, INC., priority 2022, published 2025)
